Molecules are shown by their SMILES. Like-named read-outs stand apart in the source and are kept apart here.

The values below come from US6180640A, “Di- and tetra-hydroquinoline-indole antimicrobial agents, uses and compositions related thereto” (Sepracor, Inc., priority 1999, dated 2001).

One series in a line: in vivo. Further details: species or system mice. Conditions: mouse, ip. How it is done:
Solutions of compounds in 10% w/v hydroxypropyl-β-cyclodextrin in 0.9% w/v saline were prepared. A dose of 40 mg/kg or 120 mg/kg of each compound was administered to mice (5 mice/compound/dose) via intraperitoneal injections.

Series [1] is described as follows: Pharmacokinetics in rats after i.v. dosing: plasma and tissue content. Format: in vivo. Conditions: 3.6 mg/kg i.v.; for concentration at 4 h: 3.6 mg/kg, liposomal. How it is done:
The pharmacokinetics of the compound were evaluated in two rats after dosing at 3.6 mg/kg i.v using a liposomal formulation (1.8 mg/mL). […] Maximum concentrations of approximately 450 ng/ml were attained in plasma. […] Data on the accumulation of the compound in various tissues of the rats is contained in the table below.

The subject of series [2] is methicillin-resistant Staphylococcus aureus. The series can be described thus: Topical treatment of infected partial thickness wounds in pigs. The series is classed as in vivo, methicillin-resistant Staphylococcus aureus; pigs. Conditions: pig wounds, 200 mg of 2% w/w in PEG. As to the method: This Example establishes the efficacy of an antibacterial compound of the present invention in the topical treatment of methicillin-resistant Staphylococcus aureus infections. Partial thickness wounds were made on properly anesthetized young, specific pathogen free female pigs (SPF; Ken-O-Kaw Frams, Windsor, Ill.) weighing 25-30 kg. The wounds were inoculated with methicillin-resistant Staphylococcus aureus (~10^6 CFU/mL). Within 10 minutes of inoculation 200 mg of test compound [2% w/w in polyethylene glycol (PEG)] was applied to each wound. Wounds were cultured on days 1, 2, and 3. Each site was cultured only once. The culture sample was treated with a neutralizer for the antimicrobial active ingredient. The samples were processed as is known in the art to determine the number of colony forming units per mL.

For the compound `Clc1ccc2c(c1)[C@H]1OCC[C@H]1[C@@H](c1c[nH]c3ccc(Br)cc13)N2` (relative stereo), the survival at 168 h in the series “in vivo” (40 mg/kg) and in the series “in vivo” (120 mg/kg) was 100% in each case.
Regarding `Clc1ccc2c(c1)[C@H]1OCC[C@H]1[C@H](c1c[nH]c3ccc(Br)cc13)N2` (relative stereo), the survival at 168 h in the series “in vivo” (40 mg/kg) and in the series “in vivo” (120 mg/kg) was 100% each time.
Turning to `Brc1ccc2[nH]cc([C@H]3Nc4ccc(C#CCN5CCCCC5)cc4[C@H]4OCC[C@@H]34)c2c1` (relative stereo) [drawing 54], the concentration at 4 h in series [1] (rat, brain, iv, rat 1, 4 h post dose, read-out: Compound Content in Brain) is 400 ng/g; in series [1] (rat, brain, iv, rat 2, 4 h post dose, read-out: Compound Content in Brain), 400 ng/g; in series [1] (rat, kidney, iv, rat 1, 4 h post dose, read-out: Compound Content in Kidney), 1300 ng/g; in series [1] (rat, kidney, iv, rat 2, 4 h post dose, read-out: Compound Content in Kidney), 2200 ng/g; in series [1] (rat, liver, iv, rat 1, 4 h post dose, read-out: Compound Content in Liver) it was 3200 ng/g; in series [1] (rat, liver, iv, rat 2, 4 h post dose, read-out: Compound Content in Liver), 3000 ng/g. Also, the concentration at 4 h is 12100 ng/g in series [1] (rat, lung, iv, rat 1, 4 h post dose, read-out: Compound Content in Lung); 10900 ng/g in series [1] (rat, lung, iv, rat 2, 4 h post dose, read-out: Compound Content in Lung); 1300 ng/g in series [1] (rat, parietal peritoneum, iv, rat 1, 4 h post dose, read-out: Compound Content in Parietal Peritoneum); 1600 ng/g in series [1] (rat, parietal peritoneum, iv, rat 2, 4 h post dose, read-out: Compound Content in Parietal Peritoneum); 700 ng/g in series [1] (rat, thigh muscle, iv, rat 2, 4 h post dose, read-out: Compound Content in Thigh Muscle). In series [1] (rat, plasma, iv, rats, liposomal formulation (1.8 mg/mL), read-out: Maximum concentrations in plasma), the Cmax is about 450 ng/mL. For the same compound, in series [1] (rats, liposomal formulation), the “tolerability of the dose” value is on record as “well tolerated”. Besides, in series [1] (rats, liposomal formulation, two-compartment open model), the “decline of plasma concentrations” value is listed as “declined biexponentially”.
For `Brc1ccc2[nH]cc([C@H]3Nc4ccc(C#CCN5CCCCC5)cc4[C@H]4OCC[C@@H]34)c2c1` (relative stereo) [drawing 55], the “Log CFU/mL (mean ± SE)” value in series [2] (24 h) is recorded as 5.92 Log CFU/mL; in series [2] (48 h) it was 5.83 Log CFU/mL; in series [2] (72 h) it was 5.66 Log CFU/mL.
